Laboratory results from patent US12017997B2, “Host-targeted pan-respiratory antiviral small molecule therapeutics” (priority 2021, dated 2024).
Where two headings read alike, the source gives them in different places.

Assays:
[1] = tested on: recombinant Nipah virus expressing ZsGreen fluorescence protein (rNiV-ZsG); assay: microbe, parasite or virus in culture; conditions: Henipavirus nipahense, MRC5, 72 h, read-out: MRC-5 EC50
[2] = Toxicity testing: cell viability, Alamar Blue HS; conditions: human, MRC-5 cells (uninfected)
[3] = tested on: recombinant Nipah virus expressing ZsGreen fluorescence protein (rNiV-ZsG); conditions: human
MRC-5 cells = assay: Toxicity testing: cell viability, Alamar Blue HS; conditions: read-out: MRC-5 CC50; uninfected MRC-5 cells, 72 hours post-compound treatment

SMILES	EC50 [1] [nM]	CC50 at 72 h [2] [µM]	EC50 [3] [nM]	CC50 (MRC-5 cells) [µM]
COc1c(CNC(=O)c2cc(C3CC3)nn2C)cccc1OCc1ccc(C(=O)N2CCN(S(=O)(=O)CC(C)C)CC2C)cc1 (stereo not shown) [Compound 8]	194	> 5		
COc1c(CNC(=O)c2cc(C3CC3)nn2C)cccc1OCc1ccc(C(=O)N2CCN(S(C)(=O)=O)CC2)cc1 [Compound 9]	508	> 5		
CC(=O)N1CCN(Cc2ccc(COc3cccc(CNC(=O)c4cc(C5CC5)nn4C)c3F)cc2)CC1 [Compound 13]	628	> 5		
COc1c(CNC(=O)c2cc(C3CC3)nn2C)cccc1OCc1ccc(CN2CCN(S(=O)(=O)CC(C)C)CC2)cc1 [Compound 17]			29.7	> 5
COc1c(CNC(=O)c2cc(C3CC3)nn2C)cccc1OCc1ccc(CN2CCCC2)cc1 [Compound 18]	124	> 5		
COc1c(CNC(=O)c2cc(C3CC3)nn2C)cccc1OCc1ccc(CN2CCN(S(=O)(=O)CC(C)C)CC2)cc1 [Compound 19]		> 5	14.6	
COc1c(CNC(=O)c2cc(C3CC3)nn2C)cccc1OCc1ccc(CN2CCN(C)CC2)cc1 [Compound 23]	324	> 5		
Cn1nc(C2CC2)cc1C(=O)NCc1cccc(OCc2ccc(C(=O)N3CCN(S(C)(=O)=O)CC3)cc2)c1Cl [Compound 63]	6820	> 5		
Cn1nc(C2CC2)cc1C(=O)NCc1ccc(OCc2ccc(C(=O)N3CCN(S(C)(=O)=O)CC3)cc2)c(OC(F)(F)F)c1 [Compound 80]	1440	> 5		
COc1c(CNC(=O)c2cc(C3CC3)nn2C)cccc1OCc1cccc(CN2CCN(C(C)=O)CC2)c1 [Compound 88]	144	> 5		
COc1c(CNC(=O)c2cc(C3CC3)nn2C)cccc1OCc1ccc(S(=O)(=O)N2CCN(S(C)(=O)=O)CC2)cc1 [Compound 91]	1660	> 5		
COc1c(CNC(=O)c2cc(C3CC3)nn2C)cccc1OCc1ccc(S(=O)(=O)N2CCN(C)CC2)cc1 [Compound 92]	16700	> 5		
COc1c(CNC(=O)c2cc(C3CC3)nn2C)cccc1OCc1ccc(C(=O)NC2CCN(S(C)(=O)=O)CC2)cc1 [Compound 94]	1060	> 5		
COc1c(CNC(=O)c2cc(C3CC3)nn2C)cccc1OCc1ccc(C(=O)N2CCC(N(C)S(C)(=O)=O)CC2)cc1 [Compound 96]	16100	> 5		
COc1c(CNC(=O)c2cc(C3CC3)nn2C)cccc1N(C)Cc1ccc(C(=O)N2CCN(S(C)(=O)=O)CC2)cc1 [Compound 113]	1500	> 5		
COc1c(CNC(=O)c2cc(C3CC3)nn2C)cccc1N1CCN(S(C)(=O)=O)CC1 [Compound 118]	3850	> 5		
Cc1c(CNCc2cc(C3CC3)nn2C)cccc1OCc1ccc(C(=O)N2CCN(S(C)(=O)=O)CC2)cc1 [Compound 127]	20000	> 5		
COc1c(CNC(=O)c2cc(C3CC3)nn2C)cccc1OCc1ccc(OC(=O)N2CCN(S(C)(=O)=O)CC2)cc1 [Compound 128]		> 5		
COc1c(CNC(=O)c2cc(C3CC3)nn2C)cccc1Oc1ccc(C(=O)N2CCN(S(C)(=O)=O)CC2)nn1 [Compound 133]	6320	> 5		
COc1c(CNC(=O)c2cc(C3CC3)nn2C)cccc1OCc1ccc(COC(=O)N2CCN(S(=O)(=O)CC(C)C)CC2)cc1 [Compound 173]	23.9	> 5		
COc1c(CNC(=O)c2cc(C3CC3)nn2C)cccc1OCc1ccc(COC(=O)N2CCN(C(C)=O)CC2)cc1 [Compound 174]	129	> 5		
CN1CCN(Cc2ccc(COc3ccc(CNC(=O)c4cc(C5CC5)nn4C)cc3Cl)cc2)CC1 [Compound 175]	200	> 5		
